The source of these data is ChEMBL document CHEMBL6114939, “Identification of Dual Inhibitors Targeting Main Protease (Mpro) and Cathepsin L as Potential Anti-SARS-CoV-2 Agents” (ACS Med Chem Lett, 2024).

This assay is described as follows: Antiviral activity against SARS-CoV-2 infected in human Huh-7 cells overexpressing human ACE2 pre-infected with cells for 1 hr followed by compound addition and measured 23 hrs post infection by virus plaque assay. Format: functional, cell-based.

Molecules are shown by their SMILES.

For `CC(=O)/C=C/[C@H](C[C@@H]1CCNC1=O)NC(=O)[C@H](CC1CC1)NC(=O)c1ccccc1F`, the EC50 (usually the concentration that produces a half-maximal response) was found to be 10.3 µM.

In turn, `CC(=O)/C=C/[C@H](C[C@@H]1CCNC1=O)NC(=O)[C@H](CC(C)C)NC(=O)c1ccc(F)cc1` displayed an EC50 of 7.63 µM.

Turning to `CC(=O)/C=C/[C@H](C[C@@H]1CCNC1=O)NC(=O)[C@H](CC(C)(C)C)NC(=O)c1ccc(F)cc1`, the EC50 is 3.5 µM.
